Results on 13 compounds are retold here after US12617783B2, “Heterocyclic GLP-1R agonists” (BIOMEA FUSION, INC., priority 2024, dated 2026).

T1 sequence (P43220 24-463): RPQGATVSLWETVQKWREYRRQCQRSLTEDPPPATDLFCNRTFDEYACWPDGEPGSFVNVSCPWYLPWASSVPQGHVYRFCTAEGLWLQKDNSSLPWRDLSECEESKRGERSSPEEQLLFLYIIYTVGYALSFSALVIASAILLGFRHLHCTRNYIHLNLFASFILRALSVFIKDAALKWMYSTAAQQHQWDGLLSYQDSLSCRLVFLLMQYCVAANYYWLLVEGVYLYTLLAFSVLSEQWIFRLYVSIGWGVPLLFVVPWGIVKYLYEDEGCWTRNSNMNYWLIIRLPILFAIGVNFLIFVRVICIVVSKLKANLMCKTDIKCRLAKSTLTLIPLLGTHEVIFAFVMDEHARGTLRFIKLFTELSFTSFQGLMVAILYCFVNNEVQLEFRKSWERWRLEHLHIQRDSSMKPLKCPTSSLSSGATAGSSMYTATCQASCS

This assay addresses T1, human GLP-1R (Homo sapiens, UniProt P43220).
T1 construct: host or cells: HEK293
The experiment in a line: GLP-1R cAMP assay (Example B1a, HTRF, 30 min at room temperature). Format: cell-based. The following applies: cAMP accumulation in HEK293 expressing human GLP-1R, no BETP, 30 min room temperature (Method B1a, compounds ID 1-609), Table 1; read-out: EC50. In a few lines:
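Competitive HTRF read-out of cAMP after 30 min room-temperature stimulation, BETP absent, of human GLP-1R-HEK293 cells (1,000/well) in HEPES buffer with 500 μM IBMX and 0.1% BSA. Activation normalised to GLP-1(7-37) positive control. EC50 from 4-parameter non-linear regression.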
On the technique in general: Changes in cAMP serve as a functional read-out for many G protein-coupled receptors.
By EC50 is commonly meant the concentration at which the effect is half-maximal. In the case of `Cc1cc(-n2nc3c(c2-n2ccn(-c4ccc5c(cnn5C)c4F)c2=O)[C@@H]2COC[C@H](C3)N2C(=O)c2cc3cc([C@H]4CCOC5(CC5)C4)ccc3n2[C@@]2(c3noc(=O)[nH]3)C[C@@H]2C)cc(C)c1F` [Compound 226, 3-((1S,2S)-1-(2-((4R,8S)-3-(3-(4-fluoro-1-methyl-1H-indazol-5-yl)-2-oxo-2,3-dihydro-1H-imidazol-1-yl)-2-(4-fluoro-3,5-dimethylphenyl)-2,4,5,7,8,9-hexahydro-4,8-epiminooxocino [5,4-c]pyrazole-10-carbonyl)-5-((S)-4-oxaspiro[2.5]octan-7-yl)-1H-indol-1-yl)-2-methylcyclopropyl)-1,2,4-oxadiazol-5 (4H)-one], the EC50 was determined as 435 nM.

`Cc1cc(-n2nc3c(c2-n2ccn(-c4ccc5c(cnn5C)c4F)c2=O)[C@@H]2COC[C@H](C3)N2C(=O)c2cc3cc([C@@H]4CCOC5(CC5)C4)ccc3n2[C@@]2(c3noc(=O)[nH]3)C[C@@H]2C)cc(C)c1F` [Compound 227, 3-((1S,2S)-1-(2-((4R,8S)-3-(3-(4-fluoro-1-methyl-1H-indazol-5-yl)-2-oxo-2,3-dihydro-1H-imidazol-1-yl)-2-(4-fluoro-3,5-dimethylphenyl)-2,4,5,7,8,9-hexahydro-4,8-epiminooxocino [5,4-c]pyrazole-10-carbonyl)-5-((R)-4-oxaspiro[2.5]octan-7-yl)-1H-indol-1-yl)-2-methylcyclopropyl)-1,2,4-oxadiazol-5 (4H)-one]: the EC50 was determined as 585 nM.

Consider `Cc1cc(-n2nc3c(c2-n2ccn(-c4ccc5c(cnn5C)c4C)c2=O)[C@@H]2COC[C@H](C3)N2C(=O)c2cc3cc([C@H]4CCOC(C)(C)C4)ccc3n2[C@@]2(c3noc(=O)[nH]3)C[C@@H]2C)cc(C)c1F` [Compound 228, 3-[(1S,2S)-1-[2-[(1R,8S)-3-[3-(1,4-dimethylindazol-5-yl)-2-oxo-imidazol-1-yl]-4-(4-fluoro-3,5-dimethyl-phenyl)-10-oxa-4,5,12-triazatricyclo[6.3.1.02,6]dodeca-2,5-diene-12-carbonyl]-5-[(4S)-2,2-dimethyltetrahydropyran-4-yl]indol-1-yl]-2-methyl-cyclopropyl]-4H-1,2,4-oxadiazol-5-one], for which the 50% effective concentration (EC50) came out at 402 nM.

For `Cc1cc(-n2nc3c(c2-n2ccn(-c4ccc5c(cnn5C)c4F)c2=O)[C@@H]2CC[C@H](C3)N2C(=O)c2cc3cc(N4CCOC(C)(C)C4)ccc3n2[C@@]2(c3noc(=O)[nH]3)C[C@@H]2C)cc(C)c1F` [Compound 229, 3-((1S,2S)-1-(5-(2,2-dimethylmorpholino)-2-((4S,7R)-3-(3-(4-fluoro-1-methyl-1H-indazol-5-yl)-2-oxo-2,3-dihydro-1H-imidazol-1-yl)-2-(4-fluoro-3,5-dimethylphenyl)-2,4,5,6,7,8-hexahydro-4,7-epiminocyclohepta [c]pyrazole-9-carbonyl)-1H-indol-1-yl)-2-methylcyclopropyl)-1,2,4-oxadiazol-5 (4H)-one], the EC50 was found to be 167 nM.

As to `Cc1cc(-n2nc3c(c2-n2ccn(-c4ccc5c(cnn5C)c4Cl)c2=O)[C@@H]2COC[C@H](C3)N2C(=O)c2cc3cc(C4CCOC5(CC5)C4)ccc3n2[C@@]2(c3noc(=O)[nH]3)C[C@@H]2C)cc(C)c1F` (stereo partly drawn) [Compound 230, 3-[(1S,2S)-1-[2-[(1R,8S)-3-[3-(4-chloro-1-methyl-indazol-5-yl)-2-oxo-imidazol-1-yl]-4-(4-fluoro-3,5-dimethyl-phenyl)-10-oxa-4,5,12-triazatricyclo[6.3.1.02,6]dodeca-2,5-diene-12-carbonyl]-5-(4-oxaspiro[2.5]octan-7-yl)indol-1-yl]-2-methyl-cyclopropyl]-4H-1,2,4-oxadiazol-5-one], the EC50 is 389 nM.

Turning to `Cc1cc(-n2nc3c(c2-n2ccn(-c4ccc5c(cnn5C)c4F)c2=O)[C@@H]2CC[C@H](C3)N2C(=O)c2cc3c(=O)n(C4CCOC(C)(C)C4)ccc3n2[C@@]2(c3noc(=O)[nH]3)C[C@@H]2C)cc(C)c1F` (stereo partly drawn) [Compound 231, 3-[(1S,2S)-1-[5-(2,2-dimethyltetrahydropyran-4-yl)-2-[(1S,8R)-4-(4-fluoro-3,5-dimethyl-phenyl)-3-[3-(4-fluoro-1-methyl-indazol-5-yl)-2-oxo-imidazol-1-yl]-4,5,11-triazatricyclo[6.2.1.02,6]undeca-2,5-diene-11-carbonyl]-4-oxo-pyrrolo[3,2-c]pyridin-1-yl]-2-methyl-cyclopropyl]-4H-1,2,4-oxadiazol-5-one], the EC50 was greater than 10000 nM.

Regarding `Cc1cc(-n2nc3c(c2-n2ccn(-c4ccc5c(cnn5C)c4F)c2=O)[C@@H]2CC[C@H](C3)N2C(=O)c2cc3c(OC4CCOC(C)(C)C4)nccc3n2[C@@]2(c3noc(=O)[nH]3)C[C@@H]2C)cc(C)c1F` (stereo partly drawn) [Compound 232, 3-[(1S,2S)-1-[4-(2,2-dimethyltetrahydropyran-4-yl)oxy-2-[(1S,8R)-4-(4-fluoro-3,5-dimethyl-phenyl)-3-[3-(4-fluoro-1-methyl-indazol-5-yl)-2-oxo-imidazol-1-yl]-4,5,11-triazatricyclo[6.2.1.02,6]undeca-2,5-diene-11-carbonyl]pyrrolo[3,2-c]pyridin-1-yl]-2-methyl-cyclopropyl]-4H-1,2,4-oxadiazol-5-one], the EC50 was greater than 10000 nM.

`Cc1cc(-n2nc3c(c2N2C(=O)CN(c4ccc5c(cnn5C)c4F)C2=O)[C@H]2CC[C@@H](C3)N2C(=O)c2cc3cc([C@H]4CCOC(C)(C)C4)ccc3n2[C@@]2(c3noc(=O)[nH]3)C[C@@H]2C)cc(C)c1F` [Compound 234, 3-[(1R,8S)-11-[5-[(4S)-2,2-dimethyltetrahydropyran-4-yl]-1-[(1S,2S)-2-methyl-1-(5-oxo-4H-1,2,4-oxadiazol-3-yl)cyclopropyl]indole-2-carbonyl]-4-(4-fluoro-3,5-dimethyl-phenyl)-4,5,11-triazatricyclo[6.2.1.02,6]undeca-2,5-dien-3-yl]-1-(4-fluoro-1-methyl-indazol-5-yl)imidazolidine-2,4-dione]: the EC50 is greater than 10000 nM.

Turning to `Cc1cc(-n2nc3c(c2-n2ccn(-c4cc(F)c5c(cnn5C)c4F)c2=O)[C@@H]2CC[C@H](C3)N2C(=O)c2cc3cc([C@H]4CCOC(C)(C)C4)ccc3n2[C@@]2(c3noc(=O)[nH]3)C[C@@H]2C)cc(C)c1F` [Compound 235, 3-[(1S,2S)-1-[2-[(1S,8R)-3-[3-(4,7-difluoro-1-methyl-indazol-5-yl)-2-oxo-imidazol-1-yl]-4-(4-fluoro-3,5-dimethyl-phenyl)-4,5,11-triazatricyclo[6.2.1.02,6]undeca-2,5-diene-11-carbonyl]-5-[(4S)-2,2-dimethyltetrahydropyran-4-yl]indol-1-yl]-2-methyl-cyclopropyl]-4H-1,2,4-oxadiazol-5-one], the EC50 came out at 459 nM.

Regarding `Cc1cc(-n2nc3c(c2-n2ccn(-c4cc(F)c5c(cnn5C)c4F)c2=O)[C@@H]2CC[C@H](C3)N2C(=O)c2cc3cc([C@H]4CCOC(C)(C)C4)ncc3n2[C@@]2(c3noc(=O)[nH]3)C[C@@H]2C)cc(C)c1F` [Compound 236, 3-[(1S,2S)-1-[2-[(1S,8R)-3-[3-(4,7-difluoro-1-methyl-indazol-5-yl)-2-oxo-imidazol-1-yl]-4-(4-fluoro-3,5-dimethyl-phenyl)-4,5,11-triazatricyclo[6.2.1.02,6]undeca-2,5-diene-11-carbonyl]-5-[(4S)-2,2-dimethyltetrahydropyran-4-yl]pyrrolo[2,3-c]pyridin-1-yl]-2-methyl-cyclopropyl]-4H-1,2,4-oxadiazol-5-one], the EC50 turned out to be 785 nM.

With `Cc1cc(-n2nc3c(c2-n2ccn(-c4ccc5c(cnn5C)c4F)c2=O)[C@@H]2CC[C@H](C3)N2C(=O)c2cc3c(=O)n([C@H]4CCOC(C)(C)C4)ccc3n2[C@@]2(c3noc(=O)[nH]3)C[C@@H]2C)cc(C)c1F` [Compound 238, 3-[(1S,2S)-1-[5-[(4S)-2,2-dimethyltetrahydropyran-4-yl]-2-[(1S,8R)-4-(4-fluoro-3,5-dimethyl-phenyl)-3-[3-(4-fluoro-1-methyl-indazol-5-yl)-2-oxo-imidazol-1-yl]-4,5,11-triazatricyclo[6.2.1.02,6]undeca-2,5-diene-11-carbonyl]-4-oxo-pyrrolo[3,2-c]pyridin-1-yl]-2-methyl-cyclopropyl]-4H-1,2,4-oxadiazol-5-one], the EC50 is greater than 10000 nM.

Turning to `Cc1cc(-n2nc3c(c2-n2ccn(-c4ccc5c(cnn5C)c4F)c2=O)[C@@H]2CC[C@H](C3)N2C(=O)c2cc3c(=O)n([C@@H]4CCOC(C)(C)C4)ccc3n2[C@@]2(c3noc(=O)[nH]3)C[C@@H]2C)cc(C)c1F` [Compound 239, 3-[(1S,2S)-1-[5-[(4R)-2,2-dimethyltetrahydropyran-4-yl]-2-[(1S,8R)-4-(4-fluoro-3,5-dimethyl-phenyl)-3-[3-(4-fluoro-1-methyl-indazol-5-yl)-2-oxo-imidazol-1-yl]-4,5,11-triazatricyclo[6.2.1.02,6]undeca-2,5-diene-11-carbonyl]-4-oxo-pyrrolo[3,2-c]pyridin-1-yl]-2-methyl-cyclopropyl]-4H-1,2,4-oxadiazol-5-one], the EC50 was greater than 10000 nM.

On to `Cc1cc(-n2nc3c(c2-n2ccn(-c4ccc5c(cnn5C)c4F)c2=O)[C@@H]2CC[C@H](C3)N2C(=O)c2cc3cc([C@H]4CCOC(C)(C)C4)ccc3n2[C@@]2(C(=O)N(C)C)C[C@@H]2C)cc(C)c1F` [Compound 240, cis-(1S,2S)-1-[5-[(4S)-2,2-dimethyltetrahydropyran-4-yl]-2-[(1S,8R)-4-(4-fluoro-3,5-dimethyl-phenyl)-3-[3-(4-fluoro-1-methyl-indazol-5-yl)-2-oxo-imidazol-1-yl]-4,5,11-triazatricyclo[6.2.1.02,6]undeca-2,5-diene-11-carbonyl]indol-1-yl]-N,N,2-trimethyl-cyclopropanecarboxamide], for which the EC50 worked out at 618 nM.
